Source: patent US8318762B2, “Pyrazolospiroketone acetyl-CoA carboxylase inhibitors” (Pfizer Inc., priority 2008, dated 2012)

Key:
[1] = test system: malonyl-CoA levels in muscle tissue; assay: Acute in vivo assessment of ACC inhibition: malonyl-CoA levels in muscle tissue (quadriceps); set-up: species or system male Sprague-Dawley Rats; settings: relative to chow-fed vehicle control group, % decrease +/- SEM
Method: (§1) The ACC inhibitory activity of the compound of the present invention can be confirmed in vivo by evaluation of their ability to reduce malonyl-CoA levels in liver and muscle tissue from treated animals.
(§2) Measurement of malonyl-CoA production inhibition in experimental animals. In this method, male Sprague-Dawley Rats, maintained on standard chow and water ad libitum (225-275 g), were randomized prior to the study. Animals were either fed, or fasted for 18 hours prior to the beginning of the experiment. Two hours into the light cycle the animals were orally dosed with a volume of 5 mL/kg, (0.5% methyl cellulose; vehicle) or with the appropriate compound (prepared in vehicle). Fed vehicle controls were included to determine baseline tissue malonyl-CoA levels while fasted animals were included to determine the effect fasting had on malonyl-CoA levels. One hour after compound administration the animals were asphyxiated with CO2 and the tissues were removed. Specifically, blood was collected by cardiac puncture and placed into BD Microtainer tubes containing EDTA (BD Biosciences, NJ), mixed, and placed on ice. Plasma was used to determine drug exposure. Liver and quadriceps were removed, immediately freeze-clamped, wrapped in foil and stored in liquid nitrogen.
(§3) Tissues were pulverized under liquid N2 to ensure uniformity in sampling. Malonyl-CoA was extracted from the tissue (150-200 mg) with 5 volumes 10% […] in Lysing Matrix A (MP Biomedicals, PN 6910) in a FastPrep FP120 (Thermo Scientific, speed=5.5; for 45 seconds). The supernatant containing malonyl-CoA was removed from the cell debris after centrifugation at 15000×g for 30 minutes (Eppendorf Centrifuge 5402). Samples were stably frozen at −80 C until analysis is completed.
(§4) Analysis of malonyl CoA levels in liver and muscle tissue can be evaluated using the following methodology.
(§5) The method utilizes the following materials: Malonyl-CoA tetralithium salt and malonyl-^13C3-CoA trilithium salt which were purchased from Isotec (Miamisburg, Ohio, USA), sodium perchlorate (Sigma, cat no. 410241), trichloroacetic acid (ACROS, cat no. 42145), phosphoric acid (J. T. Baker, cat no. 0260-01), ammonium formate (Fluke, cat no. 17843), methanol (HPLC grade, J. T. Baker, cat no. 9093-33), and water (HPLC grade, J. T. Baker, 4218-03) were used to make the necessary mobile phases. Strata-X on-line solid phase extraction columns, 25 μm, 20 mm×2.0 mm I.D (cat no. 00M-S033-B0-CB) were obtained from Phenomenex (Torrance, Calif., USA). SunFire C18 reversed-phase columns, 3.5 μm, 100 mm×3.0 mm I.D. (cat no. 186002543) were purchased from Waters Corporation (Milford, Mass., USA).
(§6) This method may be performed utilizing the following equipment. Two-dimensional chromatography using an Agilent 1100 binary pump, an Agilent 1100 quaternary pump and two Valco Cheminert 6-port two position valves. Samples were introduced via a LEAP HTC PAL auto sampler with Peltier cooled stack maintained at 10° C. and a 20 μL sampling loop. The needle wash solutions for the autosampler are 10% trichloroacetic acid in water (w/v) for Wash 1 and 90:10 methanol:water for Wash 2. The analytical column (Sunfire) was maintained at 35° C. using a MicroTech Scientific Micro-LC Column Oven. The eluant was analyzed on an ABI Sciex API3000 triple quadrupole mass spectrometer with Turbo Ion Spray.
(§7) Two-dimensional chromatography was performed in parallel using distinct gradient elution conditions for on-line solid phase extraction and reversed-phase chromatography. The general design of the method was such that the first dimension was utilized for sample clean-up and capture of the analyte of interest followed by a brief coupling of both dimensions for elution from the first dimension onto the second dimension. The dimensions were subsequently uncoupled allowing for gradient elution of the analyte from the second dimension for quantification while simultaneously preparing the first dimension for the next sample in the sequence. […]

[2] = test system: malonyl-CoA levels in liver; assay: Acute in vivo assessment of ACC inhibition: malonyl-CoA levels in liver tissue; set-up: species or system male Sprague-Dawley Rats; settings: relative to chow-fed vehicle control group, % decrease +/- SEM
Method: as §1, §2, §3, §4, §5, §6, §7

[3] = target: T1, recombinant human ACC2 (Homo sapiens, UniProt O00763); assay: Measurement of human ACC2 inhibition (recombinant hACC2 Transcreener ADP detection FP assay); assay type: biochemical; settings: recombinant hACC2 transcreener assay; read-out: rhACC2 IC50
T1 construct: a full length Cytomax clone of ACC2 was purchased from Cambridge Bioscience Limited; made in house; host or cells: CHO cells (tetracycline induction, pcDNA5 FRT TO-TOPO); purified on a Softlink Soft Release Avidin column
In short: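 Purified hACC2 from tetracycline-induced CHO cells (avidin-column eluate) was run in 50 mM HEPES pH7.5, 5 mM MgCl2, 5 mM citrate, 2 mM DTT, 0.5 mg/mL BSA with 30 μM acetyl-CoA, 50 μM ATP and 8 mM KHCO3. Reaction lasted 1 hour at room temperature; ADP was detected by Transcreener FP after another 1 hour.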

[4] = target: rat liver ACC (Rattus norvegicus, UniProt P11497); assay type: biochemical; settings: rat liver ACC radio enzymatic assay
Method: [1] Preparation of rat liver ACC. Rat liver ACC was obtained from rat liver based upon standard procedures such as those described by Thampy and Wakil (J. Biol. Chem. 260: 6318-6323; 1985) using the following method.
Male CD rats weighing 150-200 g were fasted for 18-24 hours and then fed a high sucrose diet (AIN-76A rodent diet; Cat # D10001, Research Diets Inc., New Brunswick, N.J.), for 3 days at which time they were sacrificed by CO2 asphyxiation. The livers were removed, rinsed in ice-cold phosphate-buffered saline (PBS), and homogenized in 5 volumes of homogenization buffer (50 mM potassium phosphate, pH 7.5, 10 mM EDTA, 10 mM 2-mercaptoethanol, 2 mM benzamidine, 0.2 mM phenylmethylsulfonylfluoride (PMSF), 5 mg/L each leupeptin, aprotinin, and antitrypsin) in a Waring® blender for 1 minute at 4° C. All subsequent operations were carried out at 4° C. The homogenate has made 3% with respect to polyethylene glycol (PEG) by the addition of 50% PEG solution and centrifuged at 20,000×g for 15 minutes. The resulting supernatant was adjusted to 5% PEG with the addition of 50% PEG solution and stirred for 5 minutes. The pellet (contains ACC activity) was collected by centrifugation at 20,000×g for 20 minutes, rinsed with ice-cold doubly distilled water to remove excess PEG and re-suspended in one-fourth the original homogenate volume with homogenization buffer. Ammonium sulfate (200 g/liter) was slowly added with stirring. After 45 minutes the enzyme is collected by centrifugation for 30 minutes at 20,000×g, re-suspended in 10 mL of 50 mM HEPES, pH7.5, 0.1 mM DTT, 1.0 mM EDTA, and 10% glycerol and desalted on a Sephadex™ G-25 column (2.5 cm×50 cm) (Pharmacia, Piscataway N.J. now GE Healthcare) equilibrated with the same buffer. The desalted enzyme preparation was stored in aliquots at −70° C. Immediately prior to use, frozen rat liver ACC aliquots were thawed, diluted to 500 μg/mL in buffer containing 50 mM HEPES, pH7.5, 10 mM MgCl2, 10 mM tripotassium citrate, 2.0 mM dithiothreitol (DTT), and 0.75 mg/mL fatty acid-free bovine serum albumin (BSA) and pre-incubated at 37° C. for 30 minutes.
[2] Measurement of rat liver ACC inhibition. For measurement of ACC activity and assessment of ACC inhibition, test compounds were dissolved in dimethylsulfoxide (DMSO) and 1 μL aliquots were added to a clear bottom, 96-well plates (Perkin-Elmer PN#1450-514). Control wells contain 1 μL of DMSO alone or 1 μL of high inhibition compound. The enzyme obtained from rat liver as described above was activated in Enzyme buffer at 37° C. for 30 minutes prior to addition to compound plate. All wells receive 75 μL of activated enzyme (1.33×) in a buffer containing 50 mM HEPES, pH7.5, 7.5 mM MgCl2 7.5 mM tripotassium citrate, 2 mM DTT, 50 mg/mL BSA. The activated enzyme was pre-incubated with the cmpd for 10 minute prior to initiating the reaction through the addition of 25 μL of substrate solution containing 50 mM HEPES, pH7.5, 7.5 mM MgCl2 7.5 mM tripotassium citrate, 2 mM DTT, 50 mg/mL BSA, 120 μM acetyl-CoA, 8.0 mM ATP, 38.4 mM KHCO3, and 1.6 mM NaH[^14C]O3 ([…]). The final substrate concentrations in the reaction were 30 μM Acetyl-CoA, 9.6 mM KHCO3, 0.4 mM NaH[^14C]O3, and 2 mM ATP. The reaction was terminated after 10 mins by the addition of 25 μL 3N HCl and the plates were dried at 50° C. for a minimum 20 hrs. 30 μL of water was added to the dried plate and mixed for 5 minutes. 95 μL of Optiphase Supermix liquid scintillation fluid (Perkin Elmer, Waltham, Mass.) was added and the plates are mixed for 20 minutes. Incorporation of ^14C into MCoA was measured using a Wallac Trilux 1450 Microbeta LSC luminescence counter.

T1 sequence (O00763 whole entry): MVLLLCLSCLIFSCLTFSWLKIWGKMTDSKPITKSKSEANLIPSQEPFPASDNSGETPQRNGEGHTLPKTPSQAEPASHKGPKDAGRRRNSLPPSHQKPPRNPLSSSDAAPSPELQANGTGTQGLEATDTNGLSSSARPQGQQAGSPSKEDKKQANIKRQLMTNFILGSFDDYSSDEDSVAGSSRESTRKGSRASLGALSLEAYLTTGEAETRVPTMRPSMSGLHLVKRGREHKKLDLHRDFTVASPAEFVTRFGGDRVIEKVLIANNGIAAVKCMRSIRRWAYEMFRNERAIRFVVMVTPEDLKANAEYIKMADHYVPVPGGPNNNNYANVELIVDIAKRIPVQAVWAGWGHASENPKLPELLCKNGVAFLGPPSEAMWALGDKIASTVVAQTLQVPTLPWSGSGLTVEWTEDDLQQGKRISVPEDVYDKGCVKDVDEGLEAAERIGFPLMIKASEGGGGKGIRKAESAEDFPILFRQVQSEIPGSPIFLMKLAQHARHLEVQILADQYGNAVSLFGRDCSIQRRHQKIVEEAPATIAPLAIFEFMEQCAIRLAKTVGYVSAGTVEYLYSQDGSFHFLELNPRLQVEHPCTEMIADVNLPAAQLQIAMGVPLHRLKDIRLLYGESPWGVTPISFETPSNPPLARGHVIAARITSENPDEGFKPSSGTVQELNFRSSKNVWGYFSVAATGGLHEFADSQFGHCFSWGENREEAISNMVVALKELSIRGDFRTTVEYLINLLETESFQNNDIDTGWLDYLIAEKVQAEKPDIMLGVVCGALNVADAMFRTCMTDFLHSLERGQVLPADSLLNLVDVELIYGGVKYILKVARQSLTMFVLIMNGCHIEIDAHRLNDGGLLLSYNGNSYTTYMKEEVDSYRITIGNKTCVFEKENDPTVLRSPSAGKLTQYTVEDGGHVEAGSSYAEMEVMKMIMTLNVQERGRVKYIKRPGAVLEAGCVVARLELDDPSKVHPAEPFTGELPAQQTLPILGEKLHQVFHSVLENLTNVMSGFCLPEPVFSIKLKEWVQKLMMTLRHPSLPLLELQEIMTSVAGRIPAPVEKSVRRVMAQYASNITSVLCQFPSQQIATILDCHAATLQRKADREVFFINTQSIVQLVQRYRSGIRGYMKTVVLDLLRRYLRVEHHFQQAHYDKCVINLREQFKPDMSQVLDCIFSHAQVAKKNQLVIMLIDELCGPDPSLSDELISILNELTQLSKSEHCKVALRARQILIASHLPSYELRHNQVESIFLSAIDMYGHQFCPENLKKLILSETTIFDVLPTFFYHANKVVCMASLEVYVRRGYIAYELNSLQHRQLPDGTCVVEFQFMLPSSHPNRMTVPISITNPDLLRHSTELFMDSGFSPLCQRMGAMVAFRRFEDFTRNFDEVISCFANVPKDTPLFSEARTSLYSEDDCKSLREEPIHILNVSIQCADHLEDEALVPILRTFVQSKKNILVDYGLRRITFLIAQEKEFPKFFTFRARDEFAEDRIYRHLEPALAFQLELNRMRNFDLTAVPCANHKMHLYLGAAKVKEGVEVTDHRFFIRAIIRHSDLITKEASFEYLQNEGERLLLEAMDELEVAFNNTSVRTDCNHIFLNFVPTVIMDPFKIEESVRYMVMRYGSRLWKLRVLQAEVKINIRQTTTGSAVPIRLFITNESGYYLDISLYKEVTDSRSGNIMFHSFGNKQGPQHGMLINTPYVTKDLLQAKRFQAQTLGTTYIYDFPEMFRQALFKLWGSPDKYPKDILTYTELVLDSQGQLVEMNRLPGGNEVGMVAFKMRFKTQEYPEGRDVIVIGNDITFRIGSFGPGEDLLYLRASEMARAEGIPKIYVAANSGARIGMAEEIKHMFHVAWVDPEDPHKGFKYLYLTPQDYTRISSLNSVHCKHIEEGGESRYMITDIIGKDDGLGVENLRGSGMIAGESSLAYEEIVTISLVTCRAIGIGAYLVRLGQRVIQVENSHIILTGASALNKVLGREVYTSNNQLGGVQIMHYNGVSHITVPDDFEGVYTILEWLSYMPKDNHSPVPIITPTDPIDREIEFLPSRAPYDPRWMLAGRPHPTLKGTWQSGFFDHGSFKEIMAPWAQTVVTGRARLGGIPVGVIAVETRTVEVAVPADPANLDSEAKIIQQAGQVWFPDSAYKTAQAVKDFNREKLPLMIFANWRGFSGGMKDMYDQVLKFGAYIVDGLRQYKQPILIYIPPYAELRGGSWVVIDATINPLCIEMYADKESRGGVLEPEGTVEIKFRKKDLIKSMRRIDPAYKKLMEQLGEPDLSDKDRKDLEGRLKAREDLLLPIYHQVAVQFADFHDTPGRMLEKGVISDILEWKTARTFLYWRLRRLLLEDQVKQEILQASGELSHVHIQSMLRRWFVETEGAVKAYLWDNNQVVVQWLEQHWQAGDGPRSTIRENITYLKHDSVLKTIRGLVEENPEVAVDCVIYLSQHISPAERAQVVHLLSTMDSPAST

SMILES | IC50 [3] | IC50 [4] | Percent decrease in Muscle Malonyl-CoA (quadriceps) ([1]; dose 1 mg/kg) | Percent decrease in Muscle Malonyl-CoA (quadriceps) ([1]; dose 3 mg/kg) | Percent decrease in Muscle Malonyl-CoA (quadriceps) ([1]; dose 10 mg/kg) | Percent decrease in Muscle Malonyl-CoA (quadriceps) ([1]; dose 30 mg/kg) | Percent decrease in Liver Malonyl-CoA ([2]; dose 1 mg/kg) | Percent decrease in Liver Malonyl-CoA ([2]; dose 3 mg/kg) | Percent decrease in Liver Malonyl-CoA ([2]; dose 10 mg/kg) | Percent decrease in Liver Malonyl-CoA ([2]; dose 30 mg/kg)
CCn1nc2c(c1C)OC1(CCN(C(=O)c3cc(C)c4[nH]nc(C)c4c3)CC1)CC2=O [1.001] | 0.011 µM | – | 5.69 (8.73) % | 2.90 (4.29) % | 22.83 (5.72) % | 48.03 (2.63) % | 28.29 (8.40) % | 30.37 (11.50) % | 45.45 (3.51) % | 54.31 (7.63) %
CCn1cc2c(n1)C(=O)CC1(CCN(C(=O)c3cc(C)c4[nH]nc(C)c4c3)CC1)O2 [1.003] | 0.011 µM | – | −3.72 (8.87) % | 21.23 (8.81) % | 33.30 (4.83) % | 48.81 (3.51) % | 31.45 (4.12) % | 47.61 (4.70) % | 67.40 (5.67) % | 70.47 (2.48) %
Cc1n[nH]c2c(C)cc(C(=O)N3CCC4(CC3)CC(=O)c3nn(C(C)(C)C)cc3O4)cc12 [1.012] | 0.002 µM | – | 31.53 (3.58) % | 43.01 (4.24) % | 59.48 (5.28) % | 71.08 (2.18) % | 40.32 (6.24) % | 54.87 (3.22) % | 75.72 (2.47) % | 86.52 (1.49) %

Further lines, with some results ahead:

IC50 [3] | IC50 [4] | SMILES | Percent decrease in Muscle Malonyl-CoA (quadriceps) ([1]; dose 1 mg/kg) | Percent decrease in Muscle Malonyl-CoA (quadriceps) ([1]; dose 3 mg/kg) | Percent decrease in Muscle Malonyl-CoA (quadriceps) ([1]; dose 10 mg/kg) | Percent decrease in Muscle Malonyl-CoA (quadriceps) ([1]; dose 30 mg/kg) | Percent decrease in Liver Malonyl-CoA ([2]; dose 1 mg/kg) | Percent decrease in Liver Malonyl-CoA ([2]; dose 3 mg/kg) | Percent decrease in Liver Malonyl-CoA ([2]; dose 10 mg/kg) | Percent decrease in Liver Malonyl-CoA ([2]; dose 30 mg/kg)
0.02 µM | 0.021 µM | Cc1n[nH]c2c(C)cc(C(=O)N3CCC4(CC3)CC(=O)c3nn(C5CCOC5)c(C)c3O4)cc12 (stereo not shown) [1.015] | – | – | – | – | – | – | – | –
0.028 µM | 0.022 µM | Cc1cc(C(=O)N2CCC3(CC2)CC(=O)c2nn(C(C)C)cc2O3)cc2cn[nH]c12 [1.022] | – | – | – | – | – | – | – | –
0.031 µM | 0.028 µM | CCn1nc2c(c1C)OC1(CCN(C(=O)c3cc(C)c4[nH]ncc4c3)CC1)CC2=O [1.023] | – | – | – | – | – | – | – | –
0.043 µM | 0.048 µM | CCCn1cc2c(n1)C(=O)CC1(CCN(C(=O)c3cc(C)c4[nH]ncc4c3)CC1)O2 [1.027] | – | – | – | – | – | – | – | –
0.009 µM | 0.014 µM | Cc1cc(C(=O)N2CCC3(CC2)CC(=O)c2nn(C4CCCC4)cc2O3)cc2cn[nH]c12 [1.038] | – | – | – | – | – | – | – | –
